Assay results taken from the NIST ThermoML archive (doi:10.1016/j.tca.2004.11.015).

Assay: xn = mol fraction of the nth substance listed
Conditions: 101.33 kPa, Liquid, Vibrating tube method

NCCO [2-aminoethan-1-ol] + CO
mass density [kg/m3]
Conditions	318.15 K	323.15 K	328.15 K	333.15 K	338.15 K	343.15 K	348.15 K	353.15 K
x1 = 0.012	–	768.02	763.16	758.24	–	–	–	–
x1 = 0.031	–	776.31	771.48	766.6	–	–	–	–
x1 = 0.05	–	784.19	779.4	774.56	769.67	764.72	759.71	754.62
x1 = 0.1	–	804.01	799.31	794.56	789.76	784.91	780	775.02
x1 = 0.15	–	822.17	817.54	812.87	808.15	803.39	798.56	793.68
x1 = 0.2002	–	839.11	834.54	829.94	825.28	820.58	815.83	811.02
x1 = 0.2501	–	854.48	849.96	845.4	840.8	836.17	831.49	826.76
x1 = 0.2974	872.55	868.11	863.65	859.14	854.6	850	845.36	840.69
x1 = 0.3502	886.63	882.25	877.83	873.37	868.88	864.35	859.77	855.14
x1 = 0.4001	898.67	894.33	889.95	885.53	881.08	876.6	872.07	867.5
x1 = 0.4427	908.45	904.14	899.79	895.41	890.99	886.55	882.06	877.53
x1 = 0.4502	910.28	905.97	901.63	897.26	892.86	888.42	883.94	879.42
x1 = 0.5002	920.74	916.46	912.15	907.81	903.44	899.04	894.6	890.11
x1 = 0.5501	930.55	926.3	922.03	917.72	913.38	909.01	904.62	900.18
x1 = 0.6001	939.84	935.62	931.37	927.1	922.8	918.47	914.1	909.7
x1 = 0.6501	948.51	944.31	940.1	935.85	931.59	927.29	922.96	918.6
x1 = 0.7005	956.89	952.72	948.53	944.32	940.08	935.81	931.52	927.19
x1 = 0.7479	963.92	959.78	955.62	951.43	947.22	942.98	938.72	934.42
x1 = 0.8002	971.82	967.71	963.57	959.42	955.24	951.03	946.8	942.54
x1 = 0.8502	978.32	974.23	970.12	965.99	961.84	957.66	953.46	949.23
x1 = 0.8967	984.55	980.48	976.39	972.29	968.16	964.01	959.83	955.62
x1 = 0.9501	990.85	986.81	982.75	978.67	974.57	970.45	966.3	962.12
